Measurements reported in the NIST ThermoML archive (doi:10.1016/j.tca.2013.03.017).

How the values were obtained:
[1] = molar heat capacity at constant pressure; settings: 101 kPa, Liquid, Small sample (50 mg) DSC
[2] = 101 kPa, Liquid, Hot wire method
[3] = molar heat capacity at constant pressure; xn = mol fraction of the nth substance listed; settings: 101 kPa, Liquid, Small sample (50 mg) DSC, x2 = 0
[4] = xn = mol fraction of the nth substance listed; settings: 101 kPa, Liquid, Hot wire method, x2 = 0

O=S1(=O)CCCC1 [sulfolane]
Settings | molar heat capacity at constant pressure, [1] [J/K/mol] | thermal conductivity, [2] [W/m/K]
303.15 K | 181.5 | 0.1678
313.15 K | 185.1 | 0.1656
323.15 K | 188.7 | 0.1634
333.15 K | 192.3 | 0.1616
343.15 K | 194.3 | 0.1593
353.15 K | 197.8 | 0.1581

O [water]
Settings | molar heat capacity at constant pressure, [1] [J/K/mol] | thermal conductivity, [2] [W/m/K]
303.15 K | 75.3 | 0.6137
313.15 K | 75.26 | 0.6307
323.15 K | 75.3 | 0.6437
333.15 K | 75.39 | 0.6548
343.15 K | 75.48 | 0.6632
353.15 K | 75.6 | 0.67

O [water] + O=S1(=O)CCCC1
Settings | molar heat capacity at constant pressure, [3] [J/K/mol] | thermal conductivity, [4] [W/m/K]
303.15 K | 75.3 | 0.6137
313.15 K | 75.26 | 0.6307
323.15 K | 75.3 | 0.6437
333.15 K | 75.39 | 0.6548
343.15 K | 75.48 | 0.6632
353.15 K | 75.6 | 0.67
